In paper PMC4195943, “A novel small-molecule MRCK inhibitor blocks cancer cell invasion” (Cell Communication and Signaling : CCS, 2014):

Key:
ROCK2 [1] = target: T1, ROCK2 (Homo sapiens, UniProt O75116); assay: MLC phosphorylation in MDA-MB-231 cells expressing doxycycline-induced ROCK2 kinase domain (quantitative western blot); set-up: The kinase domains of MRCKβ (1–473), ROCK1 (1–535) or ROCK2 (1–532) were gene synthesized; expressed in transfected cells; host or cells: MDA-MB-231 D3H2LN-Luc Tet3G cells, pTRE3G-ROCK2 (1–532); conditions: doxycycline-induced MDA-MB-231, 60 minutes treatment; read-out: cell based EC50, MLC phosphorylation induced by ROCK2
Method: (A) MDA-MB-231 breast cancer cells expressing doxycycline inducible ROCK1, ROCK2 or MRCKβ kinase domains were established as indicated. Following treatment with doxycycline for 18 hours to induce expression, cell lysates were western blotted with antibodies as indicated.
MDA-MB-231 D3H2LN-Luc cells (Caliper LifeScience) were grown in MEM/EBSS (Hyclone) supplemented with 10% fetal bovine serum (FBS) (Gibco), 1 mM Sodium Pyruvate (Sigma) 2 mM L-glutamine (Gibco), 1× MEM non-essential amino acids (Gibco) plus penicillin-streptomycin (10 Units/ml and 10 μg/ml respectively) at 37°C in 5% CO2 in a humidified incubator. MDA-MB-231 D3H2LN-Luc TetOn MRCKβ, ROCK1 and ROCK2 selective cell lines were grown in the same media with 10% FBS replaced with 10% Tet System Approved FBS (Clontech).
The kinase domains of MRCKβ (1–473), ROCK1 (1–535) or ROCK2 (1–532) were gene synthesized (Genscript) and subcloned into pTRE3G (Clontech). MDA-MB-231 D3H2LN-Luc Tet3G cells were co-transfected with pTRE3G-MRCKβ (1–473), pTRE3G-ROCK1 (1–535) or pTRE3G-ROCK2 (1–532), together with a linear Pur^r-selection marker using Xfect transfection reagent according to manufacturer’s instructions. […] Each clone was treated with or without doxycycline (1 μg/ml) for 24 hours and kinase domain expression and activity determined by western blotting. […]
Target sequence in this assay (O75116 1-532): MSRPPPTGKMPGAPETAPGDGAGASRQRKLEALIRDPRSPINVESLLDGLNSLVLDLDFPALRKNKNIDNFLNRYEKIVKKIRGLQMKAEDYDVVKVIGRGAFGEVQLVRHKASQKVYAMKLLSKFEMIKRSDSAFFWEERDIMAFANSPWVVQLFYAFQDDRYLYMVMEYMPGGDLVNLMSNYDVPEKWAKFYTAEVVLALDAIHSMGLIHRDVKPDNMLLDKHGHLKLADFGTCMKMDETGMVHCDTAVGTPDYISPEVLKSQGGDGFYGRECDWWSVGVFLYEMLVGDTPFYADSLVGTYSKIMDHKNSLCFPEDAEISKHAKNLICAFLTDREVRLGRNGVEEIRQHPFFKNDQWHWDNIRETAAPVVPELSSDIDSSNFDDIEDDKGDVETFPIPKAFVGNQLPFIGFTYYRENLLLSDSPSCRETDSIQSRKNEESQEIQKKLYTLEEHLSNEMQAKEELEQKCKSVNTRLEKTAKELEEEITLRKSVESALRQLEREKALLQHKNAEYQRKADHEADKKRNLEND

ROCK2 [2] = target: T1, ROCK2; assay: IMAP fluorescence polarization kinase assay, ROCK2; type: biochemical; set-up: purchased Life Technologies; conditions: in vitro, 1 μM ATP
Method: (§1) MRCKα, MRCKβ, ROCK1 and ROCK2 assays were performed using an IMAP fluorescence polarization assay format (Molecular Devices Inc.). 8–12 nM of each kinase (Life Technologies) was incubated for 60 min at room temperature with 100 nM FAM-S6-ribosomal protein derived peptide (synthesized by Alta Biosciences, University of Birmingham UK) in the presence of 1 μM ATP and 0.5 mM MgCl2 in 20 mM Tris buffer (pH 7.4) containing 0.01% Tween-20 and 1 mM DTT (MRCKα and β); or 1 μM ATP, 10 mM MgCl2 in 20 mM Tris buffer (pH 7.5) containing 0.25 mM EGTA 0.01% Triton X-100 and 1 mM DTT (ROCK1 and ROCK2). Typically, dose response analyses were performed over concentration ranges from 0.005 - 100 μM. Reactions were stopped by adding 2 assay volumes of 0.25% (v/v) IMAP binding reagent in 1× IMAP binding buffer A (Molecular Devices). After 30 min incubation to allow binding reagent to bind phosphorylated peptide, fluorescence polarization was measured on a Tecan Saphire^2 plate reader at excitation (470 nm) and emission (530 nm) wavelengths. Inhibition was calculated using no inhibitor and no enzyme controls as 0 and 100% inhibition, respectively.

MRCKα = MRCKα (Homo sapiens, UniProt Q5VT25); assay: IMAP fluorescence polarization kinase assay, MRCKα; type: biochemical; conditions: calculated with Cheng-Prusoff equation
Method: as §1

PhKγ2 = target: T2, PhKγ2 (Homo sapiens, UniProt P15735); assay: Kinase selectivity profiling (Eurofins), PhKγ2; type: biochemical
T2 construct: purchased Eurofins
T2 sequence (P15735 1-406): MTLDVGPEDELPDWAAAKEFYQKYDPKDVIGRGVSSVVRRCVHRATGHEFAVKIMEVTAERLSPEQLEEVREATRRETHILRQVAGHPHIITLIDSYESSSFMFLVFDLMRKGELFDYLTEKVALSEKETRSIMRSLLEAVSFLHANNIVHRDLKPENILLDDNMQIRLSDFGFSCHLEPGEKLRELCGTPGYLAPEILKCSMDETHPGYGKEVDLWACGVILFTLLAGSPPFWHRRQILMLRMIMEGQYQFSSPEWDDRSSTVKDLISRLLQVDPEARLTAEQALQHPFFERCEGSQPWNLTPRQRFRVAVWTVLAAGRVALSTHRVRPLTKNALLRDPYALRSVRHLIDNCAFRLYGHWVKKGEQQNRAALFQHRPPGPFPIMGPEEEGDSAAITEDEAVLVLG
Text: (§2) The results of this screening were mapped over the annotated human kinome phylogenetic tree using Kinome Render (Figure 2).
(§3) Kinases inhibited less than 25% have their names in green text. Kinases inhibited >25% and ≤50% have yellow circles, >50% and ≤75% have orange circles, and >75% have red circles. In each case, the size of the circle is proportional to the percentage inhibition. ROCK1 and MRCKα positions are indicated on the tree for orientation purposes. Illustration reproduced courtesy of Cell Signaling Technology, Inc. (www.cellsignal.com).
as §1, with “Typically, dose response analyses were performed over concentration ranges from 0.005 - 100 μM. Reactions were stopped by adding 2 assay volumes of 0.25% (v/v) IMAP binding reagent in 1× IMAP binding buffer A (Molecular Devices).” left out, “Inhibition was calculated using no inhibitor and no enzyme controls as 0 and 100% inhibition, respectively.” left out

ROCK1 = ROCK1 (Homo sapiens, UniProt Q13464); assay: IMAP fluorescence polarization kinase assay, ROCK1; type: biochemical; set-up: purchased Life Technologies; conditions: in vitro, 1 μM ATP
Method: as §1

Caco-2 permeability = type: in vitro ADME; conditions: human
PRK2 = target: T3, PRK2 (Homo sapiens, UniProt Q16513); assay: Kinase selectivity profiling (Eurofins), PRK2; type: biochemical
T3 construct: purchased Eurofins
Text: as §2, §3
as §1, with “Typically, dose response analyses were performed over concentration ranges from 0.005 - 100 μM. Reactions were stopped by adding 2 assay volumes of 0.25% (v/v) IMAP binding reagent in 1× IMAP binding buffer A (Molecular Devices).” left out, “Inhibition was calculated using no inhibitor and no enzyme controls as 0 and 100% inhibition, respectively.” left out

T3 sequence (Q16513 whole entry): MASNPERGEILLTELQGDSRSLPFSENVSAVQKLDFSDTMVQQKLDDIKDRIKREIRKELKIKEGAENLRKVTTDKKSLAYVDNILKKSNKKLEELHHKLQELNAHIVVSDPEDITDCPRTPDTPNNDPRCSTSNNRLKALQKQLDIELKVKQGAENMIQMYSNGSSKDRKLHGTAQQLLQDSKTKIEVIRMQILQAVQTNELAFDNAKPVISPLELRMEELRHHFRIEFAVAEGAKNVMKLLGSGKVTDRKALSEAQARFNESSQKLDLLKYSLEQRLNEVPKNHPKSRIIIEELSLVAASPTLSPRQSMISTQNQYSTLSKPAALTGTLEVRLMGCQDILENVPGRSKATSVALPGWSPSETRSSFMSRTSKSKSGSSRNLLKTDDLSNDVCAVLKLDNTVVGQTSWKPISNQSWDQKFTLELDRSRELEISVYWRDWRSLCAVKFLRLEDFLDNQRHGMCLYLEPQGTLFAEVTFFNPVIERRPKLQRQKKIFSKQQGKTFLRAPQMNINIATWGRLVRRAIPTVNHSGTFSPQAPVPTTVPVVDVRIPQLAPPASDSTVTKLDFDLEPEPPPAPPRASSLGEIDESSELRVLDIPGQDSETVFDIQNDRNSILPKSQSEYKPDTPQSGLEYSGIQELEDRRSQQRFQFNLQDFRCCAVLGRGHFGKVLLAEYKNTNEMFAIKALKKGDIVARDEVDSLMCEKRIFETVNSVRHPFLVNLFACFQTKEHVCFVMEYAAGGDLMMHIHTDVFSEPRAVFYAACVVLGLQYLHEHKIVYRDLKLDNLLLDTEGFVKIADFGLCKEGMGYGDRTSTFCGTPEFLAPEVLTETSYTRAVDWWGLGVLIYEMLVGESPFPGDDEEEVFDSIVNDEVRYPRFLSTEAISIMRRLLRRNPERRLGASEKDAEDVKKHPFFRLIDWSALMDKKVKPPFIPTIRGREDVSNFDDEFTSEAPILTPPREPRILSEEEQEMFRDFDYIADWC
Chain of ROCK1 (Q13464 whole entry): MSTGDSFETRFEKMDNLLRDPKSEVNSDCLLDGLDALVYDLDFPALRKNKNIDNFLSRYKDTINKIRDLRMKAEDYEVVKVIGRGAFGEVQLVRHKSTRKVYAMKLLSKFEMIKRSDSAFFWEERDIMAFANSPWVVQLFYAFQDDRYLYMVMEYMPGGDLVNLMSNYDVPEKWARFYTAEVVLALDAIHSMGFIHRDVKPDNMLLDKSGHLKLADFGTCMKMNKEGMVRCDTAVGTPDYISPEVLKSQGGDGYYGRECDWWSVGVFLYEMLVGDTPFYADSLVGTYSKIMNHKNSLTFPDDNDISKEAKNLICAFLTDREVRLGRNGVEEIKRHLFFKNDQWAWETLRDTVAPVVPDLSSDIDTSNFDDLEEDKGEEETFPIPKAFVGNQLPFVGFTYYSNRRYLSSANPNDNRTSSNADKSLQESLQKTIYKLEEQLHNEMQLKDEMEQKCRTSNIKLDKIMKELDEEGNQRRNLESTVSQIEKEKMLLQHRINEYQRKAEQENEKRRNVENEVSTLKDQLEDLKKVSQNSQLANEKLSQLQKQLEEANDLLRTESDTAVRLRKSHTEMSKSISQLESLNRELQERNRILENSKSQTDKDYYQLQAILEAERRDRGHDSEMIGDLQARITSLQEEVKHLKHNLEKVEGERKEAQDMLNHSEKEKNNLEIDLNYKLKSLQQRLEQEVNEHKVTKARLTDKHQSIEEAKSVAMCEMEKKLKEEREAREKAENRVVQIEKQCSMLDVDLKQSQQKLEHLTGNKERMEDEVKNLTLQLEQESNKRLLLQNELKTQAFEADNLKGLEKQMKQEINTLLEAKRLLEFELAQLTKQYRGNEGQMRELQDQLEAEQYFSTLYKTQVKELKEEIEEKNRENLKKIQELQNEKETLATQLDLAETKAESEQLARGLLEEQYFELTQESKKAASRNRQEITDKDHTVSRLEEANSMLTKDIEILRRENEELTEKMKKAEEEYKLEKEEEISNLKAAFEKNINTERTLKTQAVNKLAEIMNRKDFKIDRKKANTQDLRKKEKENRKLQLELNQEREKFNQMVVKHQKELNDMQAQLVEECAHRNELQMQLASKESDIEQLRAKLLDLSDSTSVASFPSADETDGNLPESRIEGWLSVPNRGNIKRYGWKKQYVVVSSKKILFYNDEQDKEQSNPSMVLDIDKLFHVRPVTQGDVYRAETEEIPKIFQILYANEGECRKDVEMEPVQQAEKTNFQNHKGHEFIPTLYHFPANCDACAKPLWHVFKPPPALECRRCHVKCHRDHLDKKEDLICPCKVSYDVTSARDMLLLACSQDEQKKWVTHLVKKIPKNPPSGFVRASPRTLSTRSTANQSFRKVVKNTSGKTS
Chain of MRCKα (Q5VT25 whole entry): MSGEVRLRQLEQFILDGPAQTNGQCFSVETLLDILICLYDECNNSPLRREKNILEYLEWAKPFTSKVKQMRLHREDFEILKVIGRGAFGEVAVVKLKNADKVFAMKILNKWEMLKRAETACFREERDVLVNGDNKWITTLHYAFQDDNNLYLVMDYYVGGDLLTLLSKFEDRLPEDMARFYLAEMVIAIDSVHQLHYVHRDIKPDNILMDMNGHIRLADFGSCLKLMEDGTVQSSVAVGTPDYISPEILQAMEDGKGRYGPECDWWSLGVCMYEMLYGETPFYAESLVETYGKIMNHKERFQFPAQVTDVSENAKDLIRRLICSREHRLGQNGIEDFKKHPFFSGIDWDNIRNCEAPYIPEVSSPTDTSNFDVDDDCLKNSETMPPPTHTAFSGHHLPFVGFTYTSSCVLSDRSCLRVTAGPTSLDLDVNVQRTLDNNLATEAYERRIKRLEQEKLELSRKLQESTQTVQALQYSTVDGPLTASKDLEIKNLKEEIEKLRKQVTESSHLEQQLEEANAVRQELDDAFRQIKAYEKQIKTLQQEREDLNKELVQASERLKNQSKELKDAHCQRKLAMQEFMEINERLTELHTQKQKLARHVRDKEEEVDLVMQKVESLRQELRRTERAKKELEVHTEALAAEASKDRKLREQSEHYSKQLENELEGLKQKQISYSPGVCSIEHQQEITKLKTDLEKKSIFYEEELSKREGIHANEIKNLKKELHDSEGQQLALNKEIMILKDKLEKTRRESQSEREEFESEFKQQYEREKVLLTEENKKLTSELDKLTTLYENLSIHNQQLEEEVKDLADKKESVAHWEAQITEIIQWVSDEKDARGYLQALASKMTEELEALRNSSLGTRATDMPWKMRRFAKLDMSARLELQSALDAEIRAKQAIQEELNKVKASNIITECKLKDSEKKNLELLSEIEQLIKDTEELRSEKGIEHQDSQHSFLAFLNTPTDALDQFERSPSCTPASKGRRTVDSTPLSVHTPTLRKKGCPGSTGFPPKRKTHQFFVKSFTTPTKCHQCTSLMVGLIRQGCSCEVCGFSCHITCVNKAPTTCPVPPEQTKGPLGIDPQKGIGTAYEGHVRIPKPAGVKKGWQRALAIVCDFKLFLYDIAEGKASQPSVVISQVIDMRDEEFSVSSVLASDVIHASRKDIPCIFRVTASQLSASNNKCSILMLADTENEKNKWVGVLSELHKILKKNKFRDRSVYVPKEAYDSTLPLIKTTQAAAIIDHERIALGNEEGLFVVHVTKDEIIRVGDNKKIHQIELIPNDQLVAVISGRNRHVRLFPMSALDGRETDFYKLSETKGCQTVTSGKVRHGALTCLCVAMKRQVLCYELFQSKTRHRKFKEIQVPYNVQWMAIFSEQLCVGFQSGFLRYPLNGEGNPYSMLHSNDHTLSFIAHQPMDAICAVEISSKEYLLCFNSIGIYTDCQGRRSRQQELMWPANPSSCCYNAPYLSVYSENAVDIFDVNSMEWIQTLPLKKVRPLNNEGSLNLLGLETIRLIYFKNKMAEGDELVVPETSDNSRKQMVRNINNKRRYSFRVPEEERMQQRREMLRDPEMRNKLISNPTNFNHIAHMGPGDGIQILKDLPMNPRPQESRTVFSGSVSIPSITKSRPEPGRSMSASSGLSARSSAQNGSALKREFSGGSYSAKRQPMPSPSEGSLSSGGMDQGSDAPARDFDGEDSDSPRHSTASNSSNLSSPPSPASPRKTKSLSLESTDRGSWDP

- EC50 (ROCK2 [1]): 447 nM
- IC50 (ROCK2 [2]): 123 nM
- Ki (MRCKα): 10 nM
- inhibition at 10 µM (PhKγ2): > 75%
- IC50 (ROCK1): 230 nM
- Papp (Caco-2 permeability): 0.171 ×10⁻⁶ cm/s
- inhibition at 10 µM (PRK2): > 75%
Compound: O=C(Nc1cn[nH]c1-c1ccccn1)c1nn(C2CCNCC2)cc1Cl [BDP5290, 4-chloro-1-(4-piperidyl)-N-[5-(2-pyridyl)-1H-pyrazol-4-yl]pyrazole-3-carboxamide]
